Entries after “also recorded” stand apart in the source; their conditions may differ. Read-outs that look alike come from different tables or passages of the source.
Key:
[1] = cited from earlier work
MMPs [2] = details: not tested in Table 1; cited from earlier work
MMP-9 [3] = assay: ELISA of MMP-9 protein in primary orthotopic tumors; type: in vivo, mice; details: tumors harvested day 30
Procedure: (§1) Enzyme-Linked ImmunoSorbent Assay (ELISA): The NIMP-9 protein level was determined using Human total MMP-9 DuoSet kit (R&D systems, Emeryville, CA) following the manufacturer's instruction. Ten microgram of total protein was aliquoted in each well and the MMP-9 concentration was determined by the colorimetric method.

intracellular cystine = details: cited from earlier work
H5766T tumor = assay: Orthotopic pancreatic cancer mouse model: metastasis, ascites, survival; type: in vivo, mice
Procedure: (§2) Measurement of metastasis, survival and body weight of animals implanted with orthotopic pancreatic cancer in mouse model: Female nude nu/nu mice between ages 5 and 6 weeks were maintained in a barrier facility in HEPA-filtered rack. All animal studies were conducted under approved protocol #2000-06 by the CBER Institutional Animal Care and Use Committee in accordance with the principles and procedures outlined in the NIH Guideline for the Care and Use of Laboratory Animals. For orthotopic tumor cell injection, the pancreas was carefully exposed, and 2.0×10^6 of MIA-PaCa2 and H5766T cells were injected into the organ. The pancreas was then returned to the peritoneal cavity, and the abdominal wall and skin were closed with skin clips (29, 30). […] At day 30, mice were sacrificed and the number of metastatic nodules visible by naked eye and whose sizes were >5 mm in diameter counted. The total weight of primary tumor and metastatic nodules were also measured. Pictures were taken immediately after sacrificing the animals. Additionally, mouse survival time was monitored in an independent experiment. Mice were sacrificed when they had severe ascites or cachexia.
(§3) At day 30, the number and weight of the primary tumor and metastatic nodules were measured. […] The survival of mice among different treatment groups was also determined.

MIA-PaCa2 tumor = assay: as above; type: in vivo, mice
Procedure: as §2, §3

MMP-14 [4] = assay: qRT-PCR of MMP-14 mRNA in pancreatic cancer cell lines; type: cell-based, human; details: highest concentration, in vitro
Procedure: (§4) Quantitative Reverse transcription-PCR (qRT-PCR): qRT-PCR was performed as described previously using QuantiTect SYBR Green PCR Kits (QIAGEN, Valencia, CA) (28). Gene specific primers for human MMP-9, MMP-12, MMP-14 and I3-actin were either purchased from QIAGEN or synthesized at the CBER core facility. Gene expression was normalized to β-actin before the fold change in gene expression was determined.
(§5) Since MMP-9 plays a central role in pancreatic cancer invasion, MMP-9 mRNA and protein levels were examined in both cell lines.

[5] = General condition, body weight, serum enzymes and histology of treated tumor-bearing mice; type: in vivo
Procedure: as §2
Measurement of enzymes in mouse serum: Mouse blood was collected from the tail vein. Serum levels of alanine aminotransferase (ALT), creatine kinase (CK), aldolase and creatinine (Cr) were measured using different kits obtained from Pointe Scientific, Inc. (Canton, MI) and Caldon Biotech, Inc. (Vista, Ca), following the manufacturer's instruction.
The general condition and body weight of mice throughout the experimental period was also monitored. […] Similarly, there was no alteration in serum enzymes representing liver function (ALT) or muscle damage (Aldolase) nor evidence of skeletal muscle damage or kidney function (creatinine kinase and creatinine) in the cysteamine-treated groups.

[6] = system: pancreatic cancer cell lines; assay: Cell migration assay (wound healing); type: cell-based, human
Procedure: Cell Migration Assay: Cell migration assay is a classical wound healing assay (25). For this assay, cells were cultured in 10 cm petri dishes until they were completely confluent. […] Five random fields were selected and pictures were taken using an inverted microscope. The average area (mm 2) of the gap between the cell layers was calculated using IPLab imaging software (BD Biosciences-Bioimaging, Rockville, MD). […] For the migration assay, a wound healing assay was used (described above in Example 1).

MMP-12 [7] = assay: qRT-PCR of MMP-12 mRNA in pancreatic cancer cell lines; type: cell-based, human; details: highest concentration, in vitro
Procedure: as §4, §5

[8] = system: pancreatic cancer cell lines; assay: Matrigel invasion assay; type: cell-based, human
Procedure: Matrigel invasion assay: Cell invasion was assayed in BD BioCoat Matrigel invasion chambers (BD Biosciences; 24 wells, 8 μm pore size) as described previously (26). […] Non-invaded cells were removed from the upper surface of the membrane with a cotton swab, and cells on the lower surface of the membrane were fixed and stained with H&E. Three random fields per chamber were counted. Data were shown as mean±S.D. of triplicate determinations. […] For this assay, ten different pancreatic cancer cell lines in a matrigel invasion chamber were used.

MMP-9 [9] = assay: Gelatin gel zymography of cell lysates; type: cell-based, human; details: cell lines in vitro, dose dependent
Procedure: (§6) Briefly, 50 μg of total protein was electrophoresed on 10% SDS-PAGE containing 0.1% gelatin as substrate. After washing with 1% Triton X-100 in 50 mM Tris/HCl, pH 7.5 for 1 hr to remove SDS, the gels were incubated overnight at 37° C. in 50 mM Tris/HCl, pH 7.5, containing 150 mM NaCl, 10 mM CaCl2 and 0.1% Triton X-100, prior to staining with simply blue safe stain. The gels were washed with deionized water at room temperature. […] Relevant band intensities were quantified by scanning densitometric analysis and normalized to cell number.
as §5

MMP-9 [10] = assay: ELISA of MMP-9 protein in pancreatic cancer cell lines; type: cell-based, human; details: highest concentration (5 mM), both cell lines
Procedure: as §1, with “method. […] Since MMP-9 plays a central role in pancreatic cancer invasion, MMP-9 mRNA and protein levels were examined in both cell lines.” for “method.”

MMPs [11] = assay: MMP activity in primary orthotopic tumors; type: in vivo, mice; details: H5766T and MIA-PaCa2 tumors, 100 and 250 mg/Kg, day 30
Procedure: (§7) Measurement of MMP activity: MMPs activity was measured by Mca-KPLGL-Dpa-AR-NH2 Fluorogenic Peptide Substrate (R&D systems, Emeryville, CA). Total cell protein from each pancreatic cancer cell line was collected using lysis buffer (containing 50 mM Tris-HCl, 10 mM CaCl2, 0.05% Brij35 and 0.25% Triton-X) without an MMP inhibitor. Substrate and 10 μg of total cell protein in the buffer were mixed in a black-wall 96-well plate. After 1 hour incubation, fluorescence units were determined using excitation/emission=320/405 nm.

MMP-9 [12] = assay: qRT-PCR of MMP-9 mRNA in primary orthotopic tumors; type: in vivo, mice; details: tumors harvested day 30
Procedure: as §4

MMPs [13] = system: T1, MMPs; assay: MMP profiling, summary over the whole MMP panel; type: biochemical; details: MMP-1 to MMP-14 of Table 1; read-out: IC50 against each MMP enzymatic activity (span over the panel)
T1 construct: rows headed: IC50 against each MMP enzymatic activity (span over the panel)
Procedure: (§8) After administration of fluorogenic substrate, a velocity of fluorescent increase was measured using excitation/emission=320/405 nm.
as §5

MMPs [14] = system: T2, MMPs; assay: MMP profiling, summary over the whole MMP panel; type: biochemical
T2 construct: rows headed: anti-MMP activity, IC50 range
Procedure: as §8, §5

MMP-8 = biological target: T3, MMP-8 (Homo sapiens, UniProt P22894); assay: MMP profiling, IC50 (fluorimetric MMP inhibitor profiling kit); type: biochemical
T3 construct: purchased Enzo Life Science, Farmingdale, NY
Procedure: as §8

MMP-12 [15] = biological target: T4, MMP-12 (Homo sapiens, UniProt P39900); assay: as above; type: biochemical
T4 construct: purchased Enzo Life Science, Farmingdale, NY
Procedure: as §8

MMP-2 = biological target: T5, MMP-2 (Homo sapiens, UniProt P08253); assay: as above; type: biochemical
T5 construct: purchased Enzo Life Science, Farmingdale, NY
Procedure: as §8

MMP-1 = biological target: T6, MMP-1 (Homo sapiens, UniProt P03956); assay: as above; type: biochemical
T6 construct: purchased Enzo Life Science, Farmingdale, NY
Procedure: as §8

MMP-14 [16] = biological target: T7, MMP-14 (Homo sapiens, UniProt P50281); assay: as above; type: biochemical
T7 construct: purchased Enzo Life Science, Farmingdale, NY
Procedure: as §8

MMP-13 = biological target: T8, MMP-13 (Homo sapiens, UniProt P45452); assay: as above; type: biochemical
T8 construct: purchased Enzo Life Science, Farmingdale, NY
Procedure: as §8

MMP-3 = biological target: T9, MMP-3 (Homo sapiens, UniProt P08254); assay: as above; type: biochemical
T9 construct: purchased Enzo Life Science, Farmingdale, NY
Procedure: as §8

MMP-9 [17] = biological target: T10, MMP-9 (Homo sapiens, UniProt P14780); assay: as above; type: biochemical
T10 construct: purchased Enzo Life Science, Farmingdale, NY
Procedure: as §8

MMP-10 = biological target: T11, MMP-10 (Homo sapiens, UniProt P09238); assay: as above; type: biochemical
T11 construct: purchased Enzo Life Science, Farmingdale, NY
Procedure: as §8

MMP-7 = biological target: T12, MMP-7 (Homo sapiens, UniProt P09237); assay: as above; type: biochemical
T12 construct: purchased Enzo Life Science, Farmingdale, NY
Procedure: as §8

MMP-9 [18] = assay: Zymography for MMP-9 in primary orthotopic tumors; type: in vivo, mice; details: tumors harvested day 30
Procedure: as §6

[19] = in vivo; cited from earlier work
[20] = cited from earlier work; remark: listed apart in the source
MMPs [21] = assay: MMP activity in pancreatic cancer cell lines (fluorogenic peptide substrate); type: cell-based, human; details: two representative cell lines, concentration-dependent
Procedure: as §7

MMP-9 [22] = assay: qRT-PCR of MMP-9 mRNA in pancreatic cancer cell lines; type: cell-based, human; details: highest concentration (5 mM), both cell lines
Procedure: as §4, §5

[23] = delivery to the small intestine (WO 2007/089670)

T5 sequence (P08253 110-660): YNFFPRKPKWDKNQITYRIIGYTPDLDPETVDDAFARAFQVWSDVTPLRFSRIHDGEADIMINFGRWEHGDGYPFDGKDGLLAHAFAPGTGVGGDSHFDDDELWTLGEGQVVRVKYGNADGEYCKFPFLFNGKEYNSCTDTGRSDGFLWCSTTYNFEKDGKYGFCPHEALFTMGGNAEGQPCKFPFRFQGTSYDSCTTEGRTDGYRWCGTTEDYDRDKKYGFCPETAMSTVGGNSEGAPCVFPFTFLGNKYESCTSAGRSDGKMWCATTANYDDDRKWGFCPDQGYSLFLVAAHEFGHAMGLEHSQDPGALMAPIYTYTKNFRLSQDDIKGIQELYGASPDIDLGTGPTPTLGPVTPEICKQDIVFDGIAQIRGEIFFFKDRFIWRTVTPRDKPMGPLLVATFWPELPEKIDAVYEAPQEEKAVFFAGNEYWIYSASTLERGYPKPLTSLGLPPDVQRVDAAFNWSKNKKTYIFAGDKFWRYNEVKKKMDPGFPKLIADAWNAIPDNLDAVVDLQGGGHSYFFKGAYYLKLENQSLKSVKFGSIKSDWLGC
T6 sequence (P03956 100-469): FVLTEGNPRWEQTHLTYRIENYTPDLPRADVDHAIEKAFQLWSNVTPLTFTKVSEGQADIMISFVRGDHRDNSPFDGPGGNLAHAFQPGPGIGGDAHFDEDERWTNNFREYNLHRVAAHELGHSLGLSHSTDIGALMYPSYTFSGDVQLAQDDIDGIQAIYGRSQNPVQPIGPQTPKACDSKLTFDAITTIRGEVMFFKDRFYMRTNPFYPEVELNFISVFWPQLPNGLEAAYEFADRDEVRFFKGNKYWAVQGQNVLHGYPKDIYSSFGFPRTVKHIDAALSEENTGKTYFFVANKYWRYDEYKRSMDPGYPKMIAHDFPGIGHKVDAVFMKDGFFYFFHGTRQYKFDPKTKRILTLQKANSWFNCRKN
T10 sequence (P14780 94-707): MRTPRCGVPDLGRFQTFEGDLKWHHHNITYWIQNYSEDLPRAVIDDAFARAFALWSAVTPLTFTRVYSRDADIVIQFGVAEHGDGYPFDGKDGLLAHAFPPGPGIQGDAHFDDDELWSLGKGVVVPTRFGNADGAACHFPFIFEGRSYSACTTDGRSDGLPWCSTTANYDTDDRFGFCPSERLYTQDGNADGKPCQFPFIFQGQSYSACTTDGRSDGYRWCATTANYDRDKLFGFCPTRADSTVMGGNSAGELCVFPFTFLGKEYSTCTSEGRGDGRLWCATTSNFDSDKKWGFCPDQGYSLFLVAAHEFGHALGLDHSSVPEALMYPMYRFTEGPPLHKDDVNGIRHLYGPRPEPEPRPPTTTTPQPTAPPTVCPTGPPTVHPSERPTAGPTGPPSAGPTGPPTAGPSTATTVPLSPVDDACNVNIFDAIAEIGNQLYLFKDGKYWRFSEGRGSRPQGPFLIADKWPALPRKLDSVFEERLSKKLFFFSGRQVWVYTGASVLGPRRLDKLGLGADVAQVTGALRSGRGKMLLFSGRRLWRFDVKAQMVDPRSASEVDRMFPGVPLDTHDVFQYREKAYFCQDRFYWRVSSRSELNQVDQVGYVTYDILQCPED
T12 sequence (P09237 95-267): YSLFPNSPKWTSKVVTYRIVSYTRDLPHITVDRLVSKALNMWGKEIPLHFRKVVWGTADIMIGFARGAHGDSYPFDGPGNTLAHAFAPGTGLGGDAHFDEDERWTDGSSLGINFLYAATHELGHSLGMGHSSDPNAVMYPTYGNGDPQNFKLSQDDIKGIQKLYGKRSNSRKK
T4 sequence (P39900 106-470): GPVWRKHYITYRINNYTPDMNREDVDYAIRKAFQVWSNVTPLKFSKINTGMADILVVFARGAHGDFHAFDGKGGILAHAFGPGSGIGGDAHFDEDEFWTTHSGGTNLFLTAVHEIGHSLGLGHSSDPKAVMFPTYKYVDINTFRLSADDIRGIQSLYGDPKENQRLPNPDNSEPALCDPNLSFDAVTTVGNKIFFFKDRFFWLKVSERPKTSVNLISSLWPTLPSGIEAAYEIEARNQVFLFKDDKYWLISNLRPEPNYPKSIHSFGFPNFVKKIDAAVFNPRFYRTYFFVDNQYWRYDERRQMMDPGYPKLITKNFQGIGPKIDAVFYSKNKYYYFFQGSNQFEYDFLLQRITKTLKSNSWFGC
T11 sequence (P09238 99-476): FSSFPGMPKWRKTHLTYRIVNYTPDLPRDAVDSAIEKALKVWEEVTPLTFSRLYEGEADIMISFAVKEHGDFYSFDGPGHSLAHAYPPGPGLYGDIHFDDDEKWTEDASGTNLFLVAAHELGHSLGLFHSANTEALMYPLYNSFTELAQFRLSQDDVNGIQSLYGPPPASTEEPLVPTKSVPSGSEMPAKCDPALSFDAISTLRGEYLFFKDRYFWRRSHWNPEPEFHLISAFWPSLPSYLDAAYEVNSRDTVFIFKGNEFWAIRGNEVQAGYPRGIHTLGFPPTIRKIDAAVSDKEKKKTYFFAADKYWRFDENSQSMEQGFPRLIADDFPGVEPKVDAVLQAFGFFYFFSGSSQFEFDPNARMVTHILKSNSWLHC
T9 sequence (P08254 100-477): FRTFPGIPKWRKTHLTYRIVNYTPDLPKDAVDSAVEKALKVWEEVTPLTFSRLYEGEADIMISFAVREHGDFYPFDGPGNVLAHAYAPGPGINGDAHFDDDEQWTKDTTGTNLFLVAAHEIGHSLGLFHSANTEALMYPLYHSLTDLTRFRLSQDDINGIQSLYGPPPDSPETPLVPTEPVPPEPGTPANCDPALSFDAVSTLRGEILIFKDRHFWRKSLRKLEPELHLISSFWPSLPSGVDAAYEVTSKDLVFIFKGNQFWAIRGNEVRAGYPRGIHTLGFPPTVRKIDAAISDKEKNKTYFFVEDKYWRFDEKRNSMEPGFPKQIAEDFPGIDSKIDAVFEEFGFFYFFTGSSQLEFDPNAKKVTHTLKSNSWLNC
T3 sequence (P22894 101-467): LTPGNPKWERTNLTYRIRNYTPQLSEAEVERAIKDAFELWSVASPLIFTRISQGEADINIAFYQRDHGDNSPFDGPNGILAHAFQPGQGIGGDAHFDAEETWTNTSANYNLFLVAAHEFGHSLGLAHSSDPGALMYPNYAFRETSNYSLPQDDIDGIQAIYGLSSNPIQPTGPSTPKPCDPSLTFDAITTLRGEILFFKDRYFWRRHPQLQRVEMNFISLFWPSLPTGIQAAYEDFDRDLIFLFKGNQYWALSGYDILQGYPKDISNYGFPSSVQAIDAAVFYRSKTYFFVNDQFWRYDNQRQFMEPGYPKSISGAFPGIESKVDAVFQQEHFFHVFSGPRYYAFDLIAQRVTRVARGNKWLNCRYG

CNC(=O)[C@H](Cc1ccccc1)NC(=O)[C@H](CC(C)C)[C@H](CSc1cccs1)C(=O)NO [Batimastat]
oral bioavailability ([1]; in vivo, po): poor oral bioavailability

CNC(=O)[C@@H](NC(=O)[C@H](CC(C)C)[C@H](O)C(=O)NO)C(C)(C)C [marimastat]
anti-MMP activity, IC50 range (MMPs [2]): nM to low μM | clinical toxicity ([1]; higher dosage, patients with breast cancer metastasis): high musculoskeletal toxicities

NCCS [Cysteamine]
protein level of MMP-9 in primary tumors (MMP-9 [3]): did not affect | time to decrease in leukocyte cystine (intracellular cystine; [23]): within an hour | depletion of intracellular cystine (intracellular cystine; taken regularly, circulating white blood cells): up to 90% | mouse survival time (H5766T tumor; 100 mg/kg/day, FIG. 1A): significantly prolonged | decrease in number of metastases (H5766T tumor; 250 mg/kg/day s.c., day 30): ~90% | number of metastases (H5766T tumor; 250 mg/kg/day s.c., day 30 (control 34)): 3.6 | ascites in peritoneal cavity (H5766T tumor; 100 and 250 mg/kg/day): no mice developed ascites | number of metastatic nodules (H5766T tumor; dose-dependent, day 30): significantly decreased | size and weight of the primary tumor vs control (H5766T tumor; s.c. twice daily from day 4, day 30): did not show any difference | mouse survival time (MIA-PaCa2 tumor; MIA-PaCa2, 100 mg/kg/day, FIG. 1B): significantly prolonged | ascites in peritoneal cavity (MIA-PaCa2 tumor; MIA-PaCa2, 100 and 250 mg/kg/day): no mice developed ascites | number of metastatic nodules (MIA-PaCa2 tumor; MIA-PaCa2, dose-dependent, day 30): significantly decreased | decrease in total weight of metastatic nodules (MIA-PaCa2 tumor; MIA-PaCa2, highest dose (250 mg/kg/day), day 30): ~90% | size and weight of the primary tumor vs control (MIA-PaCa2 tumor; MIA-PaCa2, s.c. twice daily from day 4, day 30): did not show any difference | mRNA of MMP-14 (MMP-14 [4]): modest increase; also recorded: modestly upregulated | dose tolerated without visible, biochemical or histological evidence of toxicity ([5]; mice): up to 250 mg/kg/day | organ toxicity by histological examination ([5]; mouse, in vivo): no organ toxicity | serum ALT (liver function) ([5]; mouse, in vivo): no alteration | serum Aldolase (muscle damage) ([5]; mouse, in vivo): no alteration | serum creatinine (kidney function) ([5]; mouse, in vivo): no alteration | serum creatinine kinase ([5]; mouse, in vivo): no alteration | adverse effects (general appearance, body weight, muscle damage, serum enzymes, serum creatinine) ([5]; mouse, in vivo, 250 mg/kg/day): no adverse effects | concentration at which cell migration was significantly inhibited ([6]; all ten cell lines, 24 hours): ≥ 0.05 mM | concentration that sufficiently inhibited cancer cell migration in vitro ([6]; discussion): 50 µM | mRNA of MMP-12 (MMP-12 [7]): modest increase; also recorded: modestly upregulated | lowest concentration that significantly inhibited cell invasion ([8]; all ten pancreatic cancer cell lines, 24 hours): 0.05 mM | concentration that sufficiently inhibited cancer cell invasion in vitro ([8]; discussion): 50 µM | zymographic gelatin hydrolyzing activity, pro and active MMP-9 (MMP-9 [9]): decreased significantly; also recorded: dose dependent decrease | protein level of MMP-9 (MMP-9 [10]): modestly increased; also recorded: modestly to moderately upregulated | MMPs activity in primary orthotopic tumors (MMPs [11]): decreased | mRNA level of MMP-9 in primary tumors (MMP-9 [12]): did not affect | IC50 (MMPs [13]): 38 to 460 µM | anti-MMP activity, IC50 range (MMPs [14]): high μM range | IC50 (MMP-8): 240 µM | IC50 (MMP-12 [15]): 60 µM | IC50 (MMP-2): 38 µM | IC50 (MMP-1): 290 µM | IC50 (MMP-14 [16]): 91 µM | IC50 (MMP-13): 460 µM | IC50 (MMP-3): 330 µM | IC50 (MMP-9 [17]): 200 µM | IC50 (MMP-10): 310 µM | IC50 (MMP-7): 40 µM | gelatinase activity, zymography for MMP-9, primary tumors (MMP-9 [18]): dose dependent decrease | adverse effects in subjects [19]: only gastrointestinal symptoms | AUC [20, 23]: increases AUC | cysteamine plasma level ([20]; oral, every 6 hours, 60 to 90 mg/kg of body weight per day): ≤ 50 µM | MMP activity in pancreatic cancer cell lines (MMPs [21]): inhibited | mRNA level of MMP-9 (MMP-9 [22]): modestly increased; also recorded: modestly to moderately upregulated

Reference: patent US12667547B2 (MESHABERASE, LLC, priority 2013, dated 2026)
